Source: the supplement of paper PMC10307832

Assays:
Experiment in all cases: relative viability (nuclei count vs DMSO), 5 days (fraction); higher = more cells survive
[1] = compound: C1CC(C1)(C(=O)O)C(=O)O.[NH2-].[NH2-].[Pt+2] [Carboplatin]
Procedure, shortened: (§1)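 MetaXpress counted nuclei in 4× images of lung cancer cell lines that had been fixed, permeabilised and Hoechst-stained in one step. Before that, cells in 1536-well plates were kept overnight at 37 °C, pinned with five √10-spaced library-drug doses on vehicle-anchored plates, and cultured 5 days without medium change. Viability takes treated-well nuclei over vehicle-well nuclei and uses the median across plates. Plates were accepted only at control CV below 25% and at least one doubling.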

[2] = compound: NS(=O)(=O)OC[C@@H]1C[C@@H](n2ccc3c(N[C@H]4CCc5ccccc54)ncnc32)C[C@@H]1O [MLN4924]
Procedure, shortened: as §1

[3] = compound: CC[C@H](C)N1C=C(C2=C(C=C(C=C21)C3=CN=C(C=C3)N4CCNCC4)C(=O)NCC5=C(C=C(NC5=O)C)C)C [GSK126]
Procedure, shortened: as §1

[4] = compound: C1CC(C1)(C(=O)O)C(=O)O.[NH2-].[NH2-].[Pt+2] [Carboplatin] + Cc1nc(NC(=O)N2CCC[C@H]2C(N)=O)sc1-c1ccnc(C(C)(C)C(F)(F)F)c1 [Alpelisib] (partner 2 µM)
Procedure, shortened: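 Lung cancer cell lines in 1536-well plates got either a single drug or a fixed anchor-drug dose together with five library-drug doses (not always all listed) in √10 steps, by pin tool, on the day after seeding. Nuclei were counted after 5 days, and relative viability is the treated-to-vehicle ratio of nuclei counts. Values are medians of duplicate plates.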

Cell Line	relative viability ([1]; 0.08 µM)	relative viability ([1]; 0.253 µM)	relative viability ([1]; 0.8 µM)	relative viability ([1]; 2.53 µM)	relative viability ([1]; 8 µM)	relative viability ([2]; 0.04 µM)	relative viability ([2]; 0.1265 µM)	relative viability ([2]; 0.4 µM)	relative viability ([2]; 1.265 µM)	relative viability ([2]; 4 µM)	relative viability ([3]; 0.08 µM)	relative viability ([3]; 0.253 µM)	relative viability ([3]; 0.8 µM)	relative viability ([3]; 2.53 µM)	relative viability ([3]; 8 µM)	relative viability ([4]; first compound 0.08 µM)	relative viability ([4]; first compound 0.253 µM)	relative viability ([4]; first compound 0.8 µM)	relative viability ([4]; first compound 2.53 µM)	relative viability ([4]; first compound 8 µM)
NCI-H2405	1.1	1	1.05	1.03	0.885	1.06	0.979	0.586	0.29	0.27	1.03	0.946	0.98	0.984	1.03	0.925	0.734	0.671	0.763	0.639
SK-MES-1	1.07	0.991	1.02	0.974	0.918	0.999	0.846	0.563	0.222	0.221	1.03	0.999	0.985	1.04	1.08	1.06	0.906	0.922	0.873	0.917
NCI-H1563	0.963	1	1.03	0.946	1.02	1.42	1.21	0.818	0.494	0.511	1.04	0.999	1.06	1.04	0.965	1.04	0.925	0.91	0.921	0.984
NCI-H2170	0.957	0.944	0.972	0.964	0.864	1	0.92	0.406	0.164	0.197	1.03	1.05	0.881	1.03	0.932	0.882	0.852	0.801	0.794	0.636
NCI-H322M	1.1	0.918	0.984	0.969	0.931	1.26	1.3	0.684	0.273	0.35	0.925	0.959	0.992	1.09	0.968	0.74	0.574	0.605	0.739	0.701
NCI-H2085	1.08	1	0.981	1.01	0.905	0.978	1.01	1.12	0.772	0.541	1.06	1.05	0.958	0.943	1.02	0.998	1.05	0.907	0.882	0.756
PC-3 [JPC-3]	1.14	1.08	1.05	0.992	0.96	0.994	1.1	0.397	0.432	0.396	1.03	0.999	1.06	1.03	1.12	1.06	1.11	0.992	1	0.834
NCI-H1355	1.09	1.05	0.989	1	0.876	0.976	1.01	0.783	0.369	0.34	1.08	0.982	0.975	1.06	1.01	0.885	0.866	0.843	0.687	0.721
